{"source": "paper PMC3885398", "about": "“Evaluation of the Antitumor Effects of BPR1J-340, a Potent and Selective FLT3 Inhibitor, Alone or in Combination with an HDAC Inhibitor, Vorinostat, in AML Cancer” (PLoS ONE, 2014)", "key": {"MOLM-13 tumor xenograft": {"system": "MOLM-13 tumor xenograft", "parameters": "method as in PMID 22187040", "conditions": "25 mg/kg, same MOLM-13 model; cited from earlier work"}, "MV4;11 cells": {"system": "MV4;11 cells", "assay": "Apoptosis assay, Annexin V-FITC/PI flow cytometry", "assay_type": "cell-based, human", "conditions": "MV4;11 (FLT3-ITD-expressing cells), 300 nM, 48 hours", "method": "(§1) The number of apoptotic cells was determined by fluorescence-activated cell sorting (FACS) analyses using Annexin V-FITC staining. In brief, cells were centrifuged after drug treatment and resuspended in 1× binding buffer containing 2.5 mM of calcium (Ca2+). Cells were incubated with Annexin V-FITC (Biolegend, San Diego, CA) and propidium iodide (PI) (Sigma–Aldrich, St. Louis, MO) in the dark at room temperature for 20 minutes. Next, samples were reconstituted with 1× binding buffer and subjected to flow cytometry FACS Calibus (BD Bioscience, Franklin Lakes, NJ) to analyze the Annexin V-positive population using CellQuest Pro (BD Bioscience) and FlowJo (Treestar, Inc., San Carlos, CA).\n(§2) Some histone deacetylase inhibitors (HDACi) will enhance the cytotoxic activity of FLT3 inhibitor on FLT3-ITD^+ cell via degradation of FLT3-ITD and STAT5 [24], [26], [36], [37]. […]\n(§3) Figure 4 The effect of BPR1J-340 and SAHA versus drug combination on AML FLT3-ITD+ cells. […] (A) Viable cells were counted after staining with trypan blue dye at indicated time point (B) At 48-hours after treatment, cells were stained with FITC-labeled annexin V and propidium iodide and percentages of apoptotic cells were analyzed by flow cytometry. […]"}, "MOLM-13 cells": {"system": "MOLM-13 cells", "assay": "Apoptosis assay, Annexin V-FITC/PI flow cytometry", "assay_type": "cell-based, human", "conditions": "MOLM-13 (FLT3-ITD-expressing cells), 300 nM, 48 hours", "method": "as §1, §2, §3"}}, "data": [{"smiles": "CN1CCN(c2ccc(C(=O)Nc3cc(-c4cccc(NS(=O)(=O)c5ccccc5)c4)n[nH]3)cc2)CC1", "note": "[BPR1J-097, N1-(3-3-[(phenylsulfonyl)amino]phenyl-1H-5-pyrazolyl)-4-(4-methylpiperazino)benzamide]", "values": [{"measurement": "CR, animals", "setting": "MOLM-13 tumor xenograft", "result": "1/8"}]}, {"smiles": "O=C(CCCCCCC(=O)Nc1ccccc1)NO", "note": "[SAHA, vorinostat]", "values": [{"measurement": "rate of apoptotic cells versus control", "setting": "MV4;11 cells", "result": "did not increase"}, {"measurement": "rate of apoptotic cells versus control", "setting": "MOLM-13 cells", "result": "did not increase"}]}]}
